Data on 6 substances can be found in US9057726B2, “Neuropeptide Q as modulator of GPCR GALR2 and uses thereof” (Actelion Pharmaceuticals Ltd., priority 2010, dated 2015).

No end group written: not given here.

Assay [1] concerns the target T1, GALR2 (Homo sapiens, UniProt O43603).
T1 sequence (O43603 1-387): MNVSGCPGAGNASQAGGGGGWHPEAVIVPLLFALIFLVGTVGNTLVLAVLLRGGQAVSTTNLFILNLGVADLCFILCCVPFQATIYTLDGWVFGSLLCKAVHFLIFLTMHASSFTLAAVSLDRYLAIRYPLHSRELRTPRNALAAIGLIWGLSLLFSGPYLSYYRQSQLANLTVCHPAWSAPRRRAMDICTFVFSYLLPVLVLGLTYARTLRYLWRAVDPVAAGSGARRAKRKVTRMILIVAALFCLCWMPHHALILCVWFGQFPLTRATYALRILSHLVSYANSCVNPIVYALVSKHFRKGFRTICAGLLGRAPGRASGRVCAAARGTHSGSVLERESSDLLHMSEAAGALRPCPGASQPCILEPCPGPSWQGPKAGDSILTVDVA
The experiment in a line: FLIPR assay (intracellular calcium release). It is filed as cell-based. More on the design: expressed in transfected cells; host or cells: CHO-K1 (coexpressing Gα16). To be noted: CHO-K1 cells coexpressing Gα16 and human GALR2. On the technique in general: Calcium flux is commonly read through the fluorescence of an indicator in the cells.
Protocol: CHO-K1 cells coexpressing Gα16 and the recombinant human GALR2 receptor grown to mid-log phase in culture media are detached with PBS-EDTA, centrifuged, resuspended in cell-culture medium (HAM's F12 with HEPES, 10% (v/v) Fetal Calf Serum), and dispensed at 15′000 cells per well in 384-well FLIPR plates. After overnight incubation in a humidified 37° C./5% CO2 incubator, the medium was discarded and replaced with a dye solution (DMEM w/o Phenol Red with HEPES, Fluo4-AM and Probenecid). After an incubation of 1 hour in a humidified 37° C./5% CO2 incubator, the dye solution was replaced by Assay Medium (HBSS/DMEM w/o phenol red). […] The resulting emission of fluorescence is recorded using FLIPR tetra. For antagonist testing 100 μl of the Neuropeptide Q polypeptide at its EC80 is injected on the mix of cells and candidate modulator, following an incubation of 15 min after the first injection. The resulting emission of fluorescence is recorded using FLIPR tetra. Agonist activity of the candidate modulator is expressed as a percentage of the activity of the Neuropeptide Q polypeptide at its EC100 concentration. Antagonist activity of the candidate modulator is expressed as a percentage of the inhibition of Neuropeptide Q polypeptide activity at its EC80 concentration.

The next assay has as its system stomach muscle. Particulars: stomach explants, dose-dependent contraction; cited from earlier work.
Assay [2] addresses T1, GALR2. Particulars: in vitro studies; cited from earlier work.

In general, EC50 refers to the concentration that produces a half-maximal response. On to NWTPQAMLYLKGAAG, for which, on GALR2 [1], the EC50 was 0.1 nM.

Regarding “NWTPQAMLYLKGAQ [Neuropeptide Q, synthetic amidated Neuropeptide Q tested by Mirabeau et al]”, the EC50 in the assay on stomach muscle is 750 nM.

With NWTPQAMLYLKGAQP, the EC50 at GALR2 [1] was determined as 0.3 nM.

Take NWTPQAMLYLKGPQG: the EC50 on GALR2 [1] amounted to 0.3 nM.

For the substance PWTPQAMLYLKGAQG, the EC50 on GALR2 [1] was determined as 0.1 nM.

Regarding “galanin-(2-13)-Glu-His-(Pro)3-(Ala-Leu)2-Ala-amide [Peptide M871]”, the “higher affinity for GALR2 than for GALR1” value at GALR2 [2] is recorded as 32 fold.
